Data set [1] has as its target T1, human recombinant caspase 1 (Homo sapiens, UniProt P29466).
T1 construct: host or cells: E. coli
Nature of the data set: Protease counter-screening: Caspase 1. The format is biochemical. On the procedure: (§1) Appendix 7. Protease Counter -Screening
(§2) Protease counter-screeni ng was performed using the methods described below. Initial screening was conducted in duplicate using a single test substance concentration of 10 µ M .
(§3) Additional assays were conducted in replicate for selected pairin gs of test s ubstance and enz yme in order to enable the determination of IC50 values using conventional procedures.
(§4) Determination of K i was made using the Batch K i program (Biokin Ltd, Pullman, WA) to derive values from the Morrison equation: […]
Where [E ] is the active enz yme concentration, Kiapp is the apparent inhibition const ant, v 0 is the control velocit y in the absence of inhibitors, vb is the background velocity, v is the initial reaction velocit y in the presence of inhibitor, and I is the inhibitor concentration.Thence:
Where [S ] is the substrate concentration and KM is the Michealis constant. […]
by addition of 50 µM Ac-DEVD-AMC for another 60 min incubation period. The amount of AMC formed was determined fluorimetricall y (excitation 360 nm/emission 465 nm). […]
by addition of 25 µM Ac-LEH D-A FC for another 60 min incubation period. The amount of amino-4- trifluorometh ylcoumarin (AFC) formed determined fluorimetrically (400nm/ 510nm).
Cathepsin C: Cathepsin C from bovine spleen was used as the source of enz yme. […] T he amount of AMC product formed was read spectrofluorimetrically
A general note: The purpose of a counterscreen is to sort out artefacts and off-target activity.

The nature of data set [2]: Plasma protein binding, Rapid Equilibrium Dialysis. The class given is in vitro ADME. To be noted: both sexes, Sprague Dawley, plasma (EDTA K2, pooled), rat plasma, 4 h at 37 °C, read-out: PPB (converted). On the procedure: Appendix 2. Pharmaco kinetics an d P l a s ma Protein Binding […]
Plasma Protein Binding Assay. PPB was determined with a Rapid Equilibrium Dialysis device using 8 kDa molecular weight cut-off inserts (Fisher Scientific UK Ltd, Leicest ershire, UK) as described b y the manufacturer. R at (Sprague Dawl e y strain) plasma EDTA K2 (mixed gender, pooled, SeraLab, West Sussex, UK) was thawed and centrifuged at 13,000 x g for 10 min to remove precipitates before being spiked with compounds (5 µM). The concentrations of compounds in the plasma and buffer chambers were determined b y LC -MS-MS (AB Sciex 3200 QTrap) anal ysis after 4 h incubation at 37 °C. Binding was calculated from the concentration percentage in both chambers as shown below. Assays were p erfo rmed in replicate and the data

Data set [3] has as its system nonsensitized rats challenged with a natural mixture of HDM allergens. As to conditions: i.t. aerosol typically 60-360 min prior to allergen challenge, unsensitised BN rats.
A short description of data set [4]: Measurement of LogD7.4 (n-octanol/PBS shake). The format is physicochemical. As to conditions: single determination, n-octanol/PBS pH 7.4; read-out: Log D7.4. The procedure: Appendix 4. Measurement of LogD7.4
Test compounds (~1 mg) were weighed into 2 mL HPLC vials. n- Octanol (0.7 mL), pre-saturated with 10 mM phosphate buffered saline pH7.4 (PBS), was added to each vial followed b y PBS (0. 7 mL), which had been pre-saturat ed with n-octanol. The mixtures were shaken for 90 min and then centrifuged for 10 min at 4,000 rpm. The upper organic l ayer (0.2 m L) and the aqueous la yer (0.5 mL) were removed from each vial and anal yz e d b y LC -MS. Mass spect ral anal ysis was used to confirm peak identity whilst the concentration of compound was assessed by a diode arra y det ecto r. The logD for each compound was calculated b y takin g th e lo g of its concentration ratio between the oct anol and aqueous la ye r s.Given the robustness of the assa y and the fact that the info rmation was us ed onl y for gen eral guid ance, thes e measu rements were based on singlicate det erminations.

The target of the next data set is T2, Human recombinant MMP-9 (Homo sapiens, UniProt P14780).
T2 construct: host or cells: mammalian cells
Nature of the data set: Protease counter-screening: MMP-9. The class given is biochemical. On the procedure: as §1, §2, §3, §4
MMP-9: Human recombinant MMP-9 proenz yme ex pressed in mammalian cells was activated with APMA for 60 min at 37 °C. […] The amount of MCA-P LG formed was read spectrofluorimetricall y at 340 nm/400 nm.
ADAM-17/TACE: Human recombinant ADAM-17 expressed in Sf21 insect cells was used as enz yme sour ce. […] T he amount of MCA-P LAQA formed w as read spectro fluorimetricall y at 340 nm/400 nm.
Angiotensin converting enzyme: Test compound or vehicle was pre- incubated in modified HEPES buffer pH 7.5 for 15 min at 25 °C with 31 mU/mL angiotensin converting enz yme from rabbit lung. […] The amount of substrate remaining was read spectrophotometricall y at 340 nm and used to deri ve the extent of reaction and its inhibition. […]

T1 sequence (P29466 120-297 limits assumed): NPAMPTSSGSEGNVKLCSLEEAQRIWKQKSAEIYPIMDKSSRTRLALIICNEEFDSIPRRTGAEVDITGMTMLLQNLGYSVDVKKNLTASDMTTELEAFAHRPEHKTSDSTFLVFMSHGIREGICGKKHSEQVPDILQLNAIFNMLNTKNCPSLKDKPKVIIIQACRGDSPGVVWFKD
T1 sequence (P29466 317-404 limits assumed): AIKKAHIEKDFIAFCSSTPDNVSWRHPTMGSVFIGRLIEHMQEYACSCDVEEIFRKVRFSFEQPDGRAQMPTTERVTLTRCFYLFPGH
T2 sequence (P14780 107-707 limits assumed): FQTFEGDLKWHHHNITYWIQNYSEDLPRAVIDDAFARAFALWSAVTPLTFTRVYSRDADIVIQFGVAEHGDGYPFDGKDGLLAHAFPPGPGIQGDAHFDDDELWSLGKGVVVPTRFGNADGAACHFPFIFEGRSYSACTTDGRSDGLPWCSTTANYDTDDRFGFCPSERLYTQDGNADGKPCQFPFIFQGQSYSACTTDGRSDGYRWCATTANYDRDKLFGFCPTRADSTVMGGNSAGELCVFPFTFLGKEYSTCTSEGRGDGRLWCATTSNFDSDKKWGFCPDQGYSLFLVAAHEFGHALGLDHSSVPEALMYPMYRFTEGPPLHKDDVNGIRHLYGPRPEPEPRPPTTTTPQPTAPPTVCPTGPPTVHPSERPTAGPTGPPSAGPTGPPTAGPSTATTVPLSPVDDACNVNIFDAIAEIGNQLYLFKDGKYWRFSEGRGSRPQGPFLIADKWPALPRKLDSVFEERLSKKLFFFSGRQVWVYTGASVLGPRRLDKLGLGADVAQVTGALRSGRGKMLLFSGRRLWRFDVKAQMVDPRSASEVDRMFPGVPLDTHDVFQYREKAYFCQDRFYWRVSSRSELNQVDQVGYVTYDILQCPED

As for `CC(C)[C@H](NC(=O)[C@H](C)NC(=O)[C@@H](NC(=O)c1ccccc1)C(C)(C)C)C(=O)C(=O)NCc1ccccc1` [Compound 38, N-{(S)-1-[(S)-1-((S)-1-Benzylaminooxalyl-2-methyl-propylcarbamoyl)-ethylcarbamoyl]-2,2-dimethyl-propyl}-benzamide], the figures for the inhibition at 10 µM (in data set [1]; on Human recombinant MMP-9) were 8% and 5%, respectively. Besides, the fraction unbound at 4 h, 5 µM in data set [2] was 0.04. For the same compound, the “duration of protection: trend of inhibition of eosinophil recruitment with increasing pre-treatment interval” value in data set [3] is listed as “rise to well-maintained”. Further, in data set [4], the logD at 1.5 h was 3.2.

As usually defined, the inhibition is the relative decrease from the control value, in per cent.

Values taken from article PMC4257840 (Journal of Medicinal Chemistry, 2014).
